Assay results as given in ChEMBL document CHEMBL1157956, “Aegicerin, the first oleanane triterpene with wide-ranging antimycobacterial activity, isolated from Clavija procera” (J Nat Prod, 2006).
In brackets after ≈: the same amount, converted by molar mass.

Legend:
[1] = test system: Mycobacterium tuberculosis; assay: Antimicrobial activity against Mycobacterium tuberculosis H37Rv by alamar blue assay; format: functional
[2] = Cytotoxicity against african green monkey Vero cells; format: cell-based; settings: chlorocebus sabaeus
[3] = test system: Mycobacterium tuberculosis; assay: Antimicrobial activity against drug-susceptible Mycobacterium tuberculosis isolate by alamar blue assay; format: functional

Row | Compound | MIC [1] [µg/mL] | GI50 [2] [µg/mL] | MIC [3] [µg/mL]
1 | CC1(C)CC[C@]23CO[C@@]4(CC[C@@H]5[C@@]6(C)CC[C@H](O)C(C)(C)[C@@H]6CC[C@@]5(C)[C@]4(C)CC2=O)[C@@H]3C1 [AEGICERIN] | 3.1 (≈ 6.79 µM) | > 40 | 1.6 (≈ 3.5 µM)
2 | NNC(=O)c1ccncc1 [ISONIAZID] | 0.125 (≈ 0.911 µM) |  | 0.125 (≈ 0.911 µM)
3 | CC1(C)CC[C@]23CO[C@@]4(CC[C@@H]5[C@@]6(C)CC[C@H](O)C(C)(C)[C@@H]6CC[C@@]5(C)[C@]4(C)C[C@H]2O)[C@@H]3C1 [PROTOPRIMULAGENIN A] | 200 (≈ 436 µM) |  | 200 (≈ 436 µM)
4 | CO[C@H]1/C=C/O[C@@]2(C)Oc3c(C)c(O)c4c(O)c(c(/C=N/N5CCN(C)CC5)c(O)c4c3C2=O)NC(=O)/C(C)=C\C=C\[C@H](C)[C@H](O)[C@@H](C)[C@@H](O)[C@@H](C)[C@H](OC(C)=O)[C@@H]1C [RIFAMPIN] | 0.063 (≈ 0.0766 µM) |  | 0.063 (≈ 0.0766 µM)
